Experimental data as given in US5147878A, “Aminoalkoxyphenyl derivatives, process of preparation and compositions containing the same” (Sanofi, priority 1986, dated 1992).
Where a name gives a salt, the structure may show the parent alone.

Tested on: isolated rat aorta
Assay: Calcium inhibitory properties: contractile response to potassium-induced depolarization on isolated rat aorta
Design: species or system isolated organ, male Wistar rats
Conditions: for activity at 1 µM / activity at 0.1 µM / activity at 0.01 µM / activity at 0.001 µM: Rattus norvegicus, 1 h, read-out: % of the maximum contractional effect; for activity at 1 µM: 10^-6 M; for activity at 0.1 µM: 10^-7 M; for % of the maximum contractional effect: 60 min
From the text: It is well established that the depolarization of a smooth muscle membrane by potassium renders the latter permeable to extracellular calcium and induces muscle contraction. Consequently, the measurement of the inhibition of the contractile response to depolarization by potassium, or the measurement of a relaxation of the tonic contraction on potassium depolarization, can represent an evaluation of the power of a compound as an inhibitor of the membrane permeability to Ca^++ ions. The technique used was as follows: The aorta was removed from male Wistar rats weighing approximately 300 g, and cut into strips approximately 40 mm long and 3 mm wide. These fragments were placed in a 25-ml isolated organ trough containing a modified Krebs-bicarbonate solution (112 mM NaCl; 5 mM KCl; 25 mM NaHCO3; 1 mM KH2 PO4; 1.2 mM MgSO4; 2.5 mM CaCl2; 11.5 mM glucose, distilled water to 1000 ml) through which a stream of 5-7% carbon dioxide in oxygen was passed, and maintained at 37° C. The preparation was connected to a force microsensor and the contractile response recorded after amplification on a recorder. A tension of 2 g was applied to the preparation. This tension was maintained for 60 minutes in the modified Krebs-bicarbonate solution, and contractions were then induced by replacing the Krebs-bicarbonate solution by a potassium-Krebs solution (17 mM NaCl; 100 mM KCl; 25 mM NaHCO3; 1 mM KH2 PO4; 1.2 mM MgSO4; 2.5 mM CaCl2; 11.5 mM glucose; distilled water to 1000 ml). When the contractile response of the preparation had become reproducible, a given amount of a compound of the invention was introduced into the bath. Sixty minutes later, a new spasm was induced by potassium depolarization. The results obtained on the aorta used in the experiment were then expressed as a percentage of the maximum contractional effect before incubation with the test substance. By way of examples, the results which follow were obtained, the compounds of formula (1) being in the form of the base, hydrochloride or oxalate.

[1] = head printed "10^-" (exponent missing; first of three columns before 10^-6 M)

SMILES | activity at 1 µM [%] | activity at 0.1 µM [%] | activity at 0.01 µM (10^-8 M) [%] | further results
CCCCN(CCCC)CCCOc1ccc(S(=O)(=O)c2ccc3ccccc3c2)cc1 [Ex. 127, 2-{4-[3-(di-n-butylamino)propyloxy]benzenesulphonyl}-naphthalene acid oxalate] | 50.7 | 86.2 |  | 
CC(C)c1occc1S(=O)(=O)c1ccc(OCCCNC(C)(C)C)cc1 [Ex. 79, 2-isopropyl-3-{4-[3-(tert-butylamino)propyloxy]benzenesulphonyl}furan oxalate] | 10.3 | 77.9 | 94.3 | 
COc1ccc(CCN(C)CCCOc2ccc(S(=O)(=O)c3nccn3C(C)C)cc2)cc1OC [Ex. 96, 1-isopropyl-2-[4-{3-[N-methyl-N-(3,4-dimethoxy-β-phenethyl)amino]propyloxy}benzenesulphonyl]imidazole dihydrochloride] | 92.4 | 87.3 |  | % of the maximum contractional effect [1]: 65.8%
CCCCN(CCCC)CCCOc1ccc(S(=O)(=O)c2c(CC)cc3ccccn23)cc1 [Ex. 123, 2-ethyl-3-{4-[3-(di-n-butylamino)propyloxy]benzenesulphonyl}indolizine acid oxalate] | 5.8 | 16.8 | 54.6 | activity at 0.001 µM (10^-9 M): 75.3%
COc1ccc(CN(C)CCCOc2ccc(S(=O)(=O)c3c(C(C)C)cn4ccccc34)cc2)cc1OC [Ex. 41, 2-Isopropyl-1-[4-{3-[N-methyl-N-(3,4-dimethoxybenzyl)-amino]propyloxy}benzenesulphonyl]indolizine] |  | 5.3 | 26.1 | activity at 0.001 µM (10^-9 M): 70.9%
COc1ccc(CN(C)CCCOc2ccc(S(=O)(=O)c3c(C(C)C)oc4ccccc34)cc2)cc1OC [Ex. 88, 2-isopropyl-3-[4-{3-[N-methyl-N-(3,4-dimethoxy-benzyl)amino)propyloxy}benzenesulphonyl]benzofuran acid oxalate] | 8.7 | 11.2 | 61.9 | activity at 0.001 µM (10^-9 M): 87%
CCN(CC)CCCOc1ccc(S(=O)(=O)c2c(C)cn3ccccc23)cc1 [Ex. 4, 2-Methyl-1-{4-[3-(diethylamino)propyloxy]benzenesulphonyl}indolizine oxalate] | 77.2 |  |  | 
CCCCN(CCCC)CCCCCOc1ccc(S(=O)(=O)c2c(CC)cn3ccccc23)cc1 [Ex. 40, 2-Ethyl-1-{4-[5-(di-n-butylamino)pentyloxy]benzenesulphonyl}indolizine] |  | 49.7 | 87.9 | 
COc1cc(CCN(C)CCCOc2ccc(S(=O)(=O)c3c(C(C)C)cn4ccccc34)cc2)cc(C)c1OC.O=C(O)C(=O)O [Ex. 135, 2-isopropyl-1-[4-{3-[N-methyl-N-(3,4-dimethoxy-5-methyl-β-phenethyl)amino]propyloxy}benzenesulphonyl]indolizine acid oxalate] |  |  |  | % of the maximum contractional effect (10^-8 M, 0.01 µM): 21.1%; % of the maximum contractional effect (10^-9 M, 0.001 µM): 58.5%; % of the maximum contractional effect (10^-10 M, 0.0001 µM): 78.9%
COc1ccc(NCCCOc2ccc(S(=O)(=O)c3c(C(C)C)cn4ccccc34)cc2)cc1OC [Ex. 44, 2-Isopropyl-1-{4-[3-(3,4-dimethoxyanilino)propyloxy]benzenesulphonyl}indolizine hydrochloride] | 29.8 | 78.9 | 89.5 | 
COc1ccc(CCN(C)CCCOc2ccc(S(=O)(=O)c3nccn3Cc3ccccc3)cc2)cc1OC [Ex. 97, 1-benzyl-2-[4-{3-[N-methyl-N-(3,4-dimethoxy-β-phenethyl)amino]propyloxy}benzenesulphonyl]imidazole acid oxalate] | 66.7 | 87.5 |  | % of the maximum contractional effect [1]: 23.5%
CCCCN(CCCC)CCCOc1ccc(S(=O)(=O)c2ccncc2)cc1.O=C(O)C(=O)O.O=C(O)C(=O)O [Ex. 60, 4-{4-[3-(di-n-butylamino)propyloxy]benzenesulphonyl}pyridine dioxalate] | 75.5 | 89.7 |  | % of the maximum contractional effect [1]: 20.2%
CC(C)c1cn2ccccc2c1S(=O)(=O)c1ccc(OCCCNCCc2ccccn2)cc1 [Ex. 34, 2-Isopropyl-1-{4-[3-(2-pyridylethylamino)propyloxy]benzenesulphonyl}indolizine dioxalate] | 3.3 | 28.1 | 82.6 | 
CCCCN(CCCC)CCCOc1ccc(S(=O)(=O)c2c(C(C)(C)C)cn3ccccc23)cc1 [Ex. 16, 2-tert-Butyl-1-{4-[3-(di-n-butylamino)propyloxy]-benzenesulphonyl}indolizine] |  | 35.8 | 78.7 | 
CC(C)c1cn2ccccc2c1S(=O)(=O)c1ccc(OCCCNCc2ccccc2)cc1 [Ex. 32, 2-Isopropyl-1-{4-[3-(benzylamino)propyloxy]benzenesulphonyl}indolizine hydrochloride] | 3.6 | 19.4 | 65.9 | 
COc1ccc(CCN(C)CCCOc2ccc(S(=O)(=O)c3c(C(C)C)c4ccccc4n3C)cc2)cc1OC [Ex. 113, 1-methyl-3-isopropyl-2-[4-{3-[N-methyl-N-(3,4-dimethoxy-β-phenethyl)amino]propyloxy}benzenesulphonyl]indole acid oxalate] |  |  | 41.1 | 
CCCCN(CCCC)CCCOc1ccc(Sc2ccncc2)cc1.O=C(O)C(=O)O.O=C(O)C(=O)O [Ex. 56, 4-{4-[3-(di-n-butylamino)propyloxy]phenylthio}pyridine dioxalate] | 58 | 86.2 |  | % of the maximum contractional effect [1]: 2.6%
COc1ccc(CCN(C)CCCOc2ccc(Sc3cc4ccccc4nn3)cc2)cc1OC [Ex. 82, 3-[4-{3-[N-methyl-N-(3,4-dimethoxy-β-phenethyl)amio]propyloxy}phenylthio]cinnoline oxalate] | 55 | 90.2 |  | % of the maximum contractional effect [1]: 6.7%
COc1ccc(CCN(C)CCCOc2ccc(Sc3ccncc3)cc2)cc1OC [Ex. 57, 4-[4-{3-[N-methyl-N-(3,4-dimethoxy-β-phenethyl)amino]propyloxy}phenylthio]pyridine oxalate] | 59 | 85 |  | % of the maximum contractional effect [1]: 3.1%
CC(C)c1cc2ccccn2c1S(=O)(=O)c1ccc(OCCCNC(C)(C)C)cc1 [Ex. 122, 2-isopropyl-3-{4-[3-tert-butylamino)propyloxy]benzenesulphonyl}indolizine hydrochloride] | 5.4 | 28.1 | 76.1 | activity at 0.001 µM (10^-9 M): 92.5%
CCCCN(CCCC)CCCCOc1ccc(S(=O)(=O)c2c(C(C)C)cn3ccccc23)cc1 [Ex. 39, 2-Isopropyl-1-{4-[4-(di-n-butylamino)butyloxy]benzenesulphonyl}indolizine] |  | 17.9 | 62.9 | 
CCCCN(CCCC)CCCOc1c(C)cc(S(=O)(=O)c2c(CC)cn3ccccc23)cc1C.Cl [Ex. 10, 2-Ethyl-1-{4-[3-(di-n-butylamino)propyloxy]-3,5-dimethylbenzenesulphonyl}indolizine hydrochloride] | 2.9 | 49 | 82.6 | Activity ratio (compound / Compound D): 2.2
COc1ccc(CCN(C)CCCOc2ccc(S(=O)(=O)c3c(C(C)C)n(C)c4ccccc34)cc2)cc1OC [Ex. 109, 1-methyl-2-isopropyl-3-[4-{3-[N-methyl-N-(3,4-dimethoxy-β-phenethyl)amino]propyloxy}benzenesulphonyl]indole] | 0 | 5.1 | 34.5 | activity at 0.001 µM (10^-9 M): 71.4%
CCc1ccccc1S(=O)(=O)c1ccc(OCCCNC(C)(C)C)cc1 [Ex. 119, 2-ethyl-1-[4-{3-(tert-butylamino)propyloxy}benzenesulphonyl]benzene acid oxalate] | 32 | 83.3 |  | 
CCCCN(CCCC)CCCOc1ccc([S+]([O-])c2c(C(C)C)cn3ccccc23)cc1 (racemic) [Ex. 54, 4-[3-(di-n-butylamino)propyl]oxyphenyl(2-isopropyl-1-indolizinyl)sulphoxide oxalate] |  | 74.3 | 82.4 | 
CCc1cn2ccccc2c1S(=O)(=O)c1ccc(OCCCNC(C)(C)C)cc1 [Ex. 3, 2-ethyl-1-{4-[3-(tert-butylamino)propyloxy]benzenesulphonyl}indolizine hydrochloride] | 30.7 |  |  | 
